Like-named read-outs stand apart in the source and are kept apart here.
Tests used:
Assay type in all cases: cell-based, human
[1] = tested on: Daudi cells; experiment: Cell proliferation experiment, Daudi; conditions: Daudi cells, read-out: Inhibitory activity IC50 on Daudi
Method in brief: (§1)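 Single-cell suspensions from log-phase cultures, passaged at least 2 generations, are seeded into 96-well plates and given compound in complete medium. Following 72 h, fluorescence with Alamar blue is recorded and fitted for IC50.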

[2] = tested on: MV4;11 cells; experiment: Cell proliferation experiment (Alamar blue, 72 h), MV4;11; conditions: read-out: Inhibitory activity IC50 on MV4;11
Method in brief: as §1

[3] = tested on: MDA-MB-231 cells; experiment: Cell proliferation experiment, MDA-MB-231; conditions: read-out: Inhibitory activity IC50 on MDA-MB-231
Method in brief: as §1

[4] = tested on: PC-3; experiment: Cell proliferation experiment, PC-3; conditions: read-out: Inhibitory activity IC50 on PC-3
Method in brief: as §1

[5] = tested on: NCIH82 cells; experiment: Cell proliferation experiment, NCI-H82; conditions: read-out: Inhibitory activity IC50 on NCI-H82
Method in brief: as §1

[6] = Homo sapiens, MV4-11, MV4;11 cells
[7] = Homo sapiens, MDA-MB-231, MDA-MB-231 cells
[8] = Homo sapiens, NCI-H82, NCI-H82 cells

Row | SMILES | IC50 ([1]; Homo sapiens, Daudi) [nM] | IC50 [2, 6] [nM] | IC50 [3, 7] [nM] | IC50 ([4]; Homo sapiens, PC-3, PC-3 cells) [nM] | IC50 [5, 8] [nM] | IC50 [1] [nM] | IC50 ([2]; MV4;11 cells) [nM] | IC50 ([3]; MDA-MB-231 cells) [nM] | IC50 ([4]; PC-3 cells) [nM] | IC50 ([5]; NCI-H82 cells) [nM]
1 | CNC(=O)c1ccccc1Nc1nc(Nc2ccc(N3CCN(C(=O)N[C@H]4CC[C@@H](NCCOCCC#Cc5cccc6c5CN(C5CCC(=O)NC5=O)C6=O)CC4)CC3)cc2)ncc1Cl (stereo partly drawn) [UB-181121] | – | – | – | – | – | 100 to 1000 | < 10 | 100 to 1000 | 100 to 1000 | 100 to 1000
2 | CNC(=O)c1ccccc1Nc1nc(Nc2ccc(C3CCN(C(=O)N[C@H]4CC[C@@H](NCCOCCC#Cc5ccc6c(c5)CN(C5CCC(=O)NC5=O)C6=O)CC4)CC3)cc2)ncc1Cl (stereo partly drawn) [UB-181122] | 100 to 1000 | < 10 | 100 to 1000 | 100 to 1000 | 100 to 1000 | – | – | – | – | –
3 | CNC(=O)c1ccccc1Nc1nc(Nc2ccc(C3CCN(C(=O)N[C@H]4CC[C@H](NCCC#Cc5ccc6c(c5)CN(C5CCC(=O)NC5=O)C6=O)CC4)CC3)cc2)ncc1Cl (stereo partly drawn) [UB-181137] | 100 to 1000 | < 10 | 100 to 1000 | 10 to 100 | 100 to 1000 | – | – | – | – | –
4 | CNC(=O)c1ccccc1Nc1nc(Nc2ccc(C3CCN(C(=O)N[C@H]4CC[C@H](NCCC#Cc5cccc6c5CN(C5CCC(=O)NC5=O)C6=O)CC4)CC3)cc2)ncc1Cl (stereo partly drawn) [UB-181138] | 100 to 1000 | < 10 | 100 to 1000 | 10 to 100 | 10 to 100 | – | – | – | – | –
5 | CNC(=O)c1ccccc1Nc1nc(Nc2ccc(N3CCN(C(=O)N[C@H]4CC[C@@H](NCCOCCC#Cc5cccc6c5CN(C5CCC(=O)NC5=O)C6=O)CC4)CC3)nc2)ncc1Cl (stereo partly drawn) [UB-181141] | 100 to 1000 | < 10 | 100 to 1000 | 100 to 1000 | 100 to 1000 | – | – | – | – | –
6 | CNC(=O)c1ccccc1Nc1nc(Nc2ccc(N3CCN(C(=O)N[C@H]4CC[C@@H](NCCOCCC#Cc5ccc6c(c5)CN(C5CCC(=O)NC5=O)C6=O)CC4)CC3)nc2)ncc1Cl (stereo partly drawn) [UB-181142] | 100 to 1000 | < 10 | 100 to 1000 | 100 to 1000 | 100 to 1000 | – | – | – | – | –
7 | CNC(=O)c1ccccc1Nc1nc(Nc2ccc(C3CCN(C(=O)N[C@H]4CC[C@@H](NCCC#Cc5ccc6c(c5)CN(C5CCC(=O)NC5=O)C6=O)CC4)CC3)cc2)ncc1Cl (stereo partly drawn) [UB-181168] | 10 to 100 | < 10 | 100 to 1000 | 100 to 1000 | 100 to 1000 | – | – | – | – | –
8 | CNC(=O)c1ccccc1Nc1nc(Nc2ccc(N3CCN(C(=O)N[C@H]4CC[C@@H](NCCC#Cc5cccc6c5CN(C5CCC(=O)NC5=O)C6=O)CC4)CC3)nc2)ncc1Cl (stereo partly drawn) [UB-181173] | > 1000 | 10 to 100 | > 1000 | 10 to 100 | > 1000 | – | – | – | – | –
9 | NC(=O)c1ccccc1Nc1nc(Nc2ccc(C3CCN(C(=O)N[C@H]4CC[C@@H](NCCC#Cc5ccc6c(c5)CN(C5CCC(=O)NC5=O)C6=O)CC4)CC3)cc2)ncc1Cl (stereo partly drawn) [UB-181182] | 100 to 1000 | < 10 | 100 to 1000 | 100 to 1000 | 10 to 100 | – | – | – | – | –
10 | CNC(=O)c1ccccc1Nc1nc(Nc2ccc(N3CCC(C(=O)N[C@H]4CC[C@@H](NCCC#Cc5ccc6c(c5)CN(C5CCC(=O)NC5=O)C6=O)CC4)CC3)cc2)ncc1Cl (stereo partly drawn) [UB-181184] | 10 to 100 | < 10 | 100 to 1000 | 10 to 100 | 10 to 100 | – | – | – | – | –
11 | CNC(=O)c1ccccc1Nc1nc(Nc2ccc(N3CCC(C(=O)N[C@H]4CC[C@@H](NCCC#Cc5cccc6c5CN(C5CCC(=O)NC5=O)C6=O)CC4)CC3)cc2)ncc1Cl (stereo partly drawn) [UB-181186] | 10 to 100 | < 10 | 100 to 1000 | < 10 | 10 to 100 | – | – | – | – | –
12 | NC(=O)c1ccccc1Nc1nc(Nc2ccc(N3CCN(C(=O)N[C@H]4CC[C@@H](NCCC#Cc5cccc6c5CN(C5CCC(=O)NC5=O)C6=O)CC4)CC3)cc2)ncc1Cl (stereo partly drawn) [UB-181190] | 10 to 100 | < 10 | 10 to 100 | 10 to 100 | 10 to 100 | – | – | – | – | –
13 | NC(=O)c1ccccc1Nc1nc(Nc2ccc(C3CCN(C(=O)N[C@H]4CC[C@@H](NCC(O)CC#Cc5ccc6c(c5)CN(C5CCC(=O)NC5=O)C6=O)CC4)CC3)cc2)ncc1Cl (stereo partly drawn) [UB-181194] | > 1000 | < 10 | > 1000 | > 1000 | > 1000 | – | – | – | – | –

Other lines, results leading:

Row | IC50 ([1]; Homo sapiens, Daudi) [nM] | IC50 [2, 6] [nM] | IC50 [3, 7] [nM] | IC50 ([4]; Homo sapiens, PC-3, PC-3 cells) [nM] | IC50 [5, 8] [nM] | IC50 [1] [nM] | IC50 ([2]; MV4;11 cells) [nM] | IC50 ([3]; MDA-MB-231 cells) [nM] | IC50 ([4]; PC-3 cells) [nM] | IC50 ([5]; NCI-H82 cells) [nM] | SMILES
14 | 10 to 100 | < 10 | 100 to 1000 | 10 to 100 | 10 to 100 | – | – | – | – | – | CNC(=O)c1ccccc1Nc1nc(Nc2ccc(N3CCN(C(=O)N[C@H]4CC[C@@H](NCCC#Cc5cccc6c5CN(C5CCC(=O)NC5=O)C6=O)CC4)CC3)cc2)ncc1Cl (stereo partly drawn) [UB-181104]
15 | – | – | – | – | – | 10 to 100 | < 10 | 100 to 1000 | 10 to 100 | 10 to 100 | CNC(=O)c1ccccc1Nc1nc(Nc2ccc(N3CCN(C(=O)N[C@H]4CC[C@@H](NCCOCCC#Cc5ccc6c(c5)CN(C5CCC(=O)NC5=O)C6=O)CC4)CC3)cc2)ncc1Cl (stereo partly drawn) [UB-181115]
16 | 10 to 100 | < 10 | 10 to 100 | 10 to 100 | 10 to 100 | – | – | – | – | – | CNC(=O)c1ccccc1Nc1nc(Nc2ccc(N3CCN(C(=O)NC4CCC(N[C@H]5CC[C@@H](OCC#Cc6ccc7c(c6)CN(C6CCC(=O)NC6=O)C7=O)CC5)CC4)CC3)cc2)ncc1Cl (stereo partly drawn) [UB-181127]
17 | 100 to 1000 | 10 to 100 | > 1000 | > 1000 | 10 to 100 | – | – | – | – | – | CNC(=O)c1ccccc1Nc1nc(Nc2ccc(N3CCN(C(=O)NC4CCC(NC5CCC(OCC#Cc6ccc7c(c6)CN(C6CCC(=O)NC6=O)C7=O)CC5)CC4)CC3)cc2)ncc1Cl (stereo not drawn) [UB-181131]
18 | 100 to 1000 | 10 to 100 | > 1000 | 10 to 100 | 100 to 1000 | – | – | – | – | – | CNC(=O)c1ccccc1Nc1nc(Nc2ccc(N3CCN(C(=O)N[C@H]4CC[C@@H](NCCC#Cc5ccc6c(c5)CN(C5CCC(=O)NC5=O)C6=O)CC4)CC3)nc2)ncc1Cl (stereo partly drawn) [UB-181169]
19 | 10 to 100 | 10 to 100 | > 1000 | 10 to 100 | > 1000 | – | – | – | – | – | CNC(=O)c1ccccc1Nc1nc(Nc2ccc(N3CCN(C(=O)N[C@H]4CC[C@H](NCCC#Cc5ccc6c(c5)CN(C5CCC(=O)NC5=O)C6=O)CC4)CC3)nc2)ncc1Cl (stereo partly drawn) [UB-181174]
20 | > 1000 | 10 to 100 | > 1000 | 10 to 100 | 100 to 1000 | – | – | – | – | – | CNC(=O)c1ccccc1Nc1nc(Nc2ccc(N3CCN(C(=O)N[C@H]4CC[C@@H](N[C@H]5C[C@H](C#Cc6ccc7c(c6)CN(C6CCC(=O)NC6=O)C7=O)C5)CC4)CC3)cc2)ncc1Cl (stereo partly drawn) [UB-181181]
21 | 10 to 100 | < 10 | 10 to 100 | 10 to 100 | 10 to 100 | – | – | – | – | – | CNC(=O)c1ccccc1Nc1nc(Nc2ccc(N3CCN(C(=O)N[C@H]4CC[C@@H](N(C)CCC#Cc5ccc6c(c5)CN(C5CCC(=O)NC5=O)C6=O)CC4)CC3)cc2)ncc1Cl (stereo partly drawn) [UB-181185]
22 | > 1000 | 10 to 100 | > 1000 | 10 to 100 | 100 to 1000 | – | – | – | – | – | CNC(=O)c1ccccc1Nc1nc(Nc2ccc(N3CCN(C(=O)NC4CCC(NCCC#Cc5cccc6c5CN(C5CCC(=O)NC5=O)C6=O)CC4)CC3)cc2)ncc1Cl (stereo not drawn) [UB-181187]
23 | 10 to 100 | 10 to 100 | > 1000 | 10 to 100 | 10 to 100 | – | – | – | – | – | CNC(=O)c1ccccc1Nc1nc(Nc2ccc(N3CCN(C(=O)N[C@H]4CC[C@@H](NCCC#Cc5ccc6c(c5)CN(C5CCC(=O)NC5=O)C6=O)CC4)CC3)cn2)ncc1Cl (stereo partly drawn) [UB-181188]
24 | < 10 | < 10 | 10 to 100 | < 10 | 10 to 100 | – | – | – | – | – | NC(=O)c1ccccc1Nc1nc(Nc2ccc(N3CCN(C(=O)N[C@H]4CC[C@@H](NCCC#Cc5ccc6c(c5)CN(C5CCC(=O)NC5=O)C6=O)CC4)CC3)cc2)ncc1Cl (stereo partly drawn) [UB-181189]

Reference: US20230210999A1, “TARGETED PROTEASE DEGRADATION (TED) PLATFORM” (EUBULUS BIOTHERAPEUTICS INC., priority 2020, published 2023)
